# Target: Prokineticin receptor 1 (Homo sapiens, UniProt Q8TCW9)
# Test: Antagonist activity at human PKR1 expressed in rat RBL2H3 cells assessed as inhibition of PK1-stimulated intracellular calcium release incubated for 10 mins prior to PK1 stimulation by FLIPR assay
# Type: functional, cell-based, RBL-2H3
# Chain of Prokineticin receptor 1 (Q8TCW9 whole entry): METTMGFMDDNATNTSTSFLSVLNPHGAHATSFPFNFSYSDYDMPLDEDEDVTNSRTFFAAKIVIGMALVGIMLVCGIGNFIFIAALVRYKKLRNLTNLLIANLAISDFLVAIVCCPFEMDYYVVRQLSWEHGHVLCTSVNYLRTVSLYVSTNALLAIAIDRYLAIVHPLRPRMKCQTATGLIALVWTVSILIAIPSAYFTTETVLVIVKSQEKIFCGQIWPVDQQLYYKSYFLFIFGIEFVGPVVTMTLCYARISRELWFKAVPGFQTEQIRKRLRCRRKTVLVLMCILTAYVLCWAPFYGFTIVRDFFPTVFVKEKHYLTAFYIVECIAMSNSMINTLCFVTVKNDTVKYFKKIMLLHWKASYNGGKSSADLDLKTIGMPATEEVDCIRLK
row,IC50 [nM],Structure (SMILES)
1,> 9000,COC1(c2ncc(Cl)cc2C)CCCN(C(=O)c2cn(C)nc2N)C1 (configuration not stated)
2,320,CC(C)n1c(C2CCCN(C(=O)c3ccnc(N(C)C)c3)C2)nc2ccccc21 (configuration not stated)
